From patent US8343934B2, “Diverse lead compound autotaxin inhibitors” (University of Memphis, priority 2009, dated 2013)
Where “and” joins values, the source holds several entries; their conditions need not be identical. Identical values can stand only once.

Target: T1, ATX (Homo sapiens, UniProt Q13822)
T1 construct: conditioned serum-free medium (CCM) from MDA-MB-435 cells as the source of ATX; endogenous in cells; host or cells: MDA-MB-435 cells (about 10x concentrated conditioned serum-free medium)
Test: ATX inhibition assay (FS-3 substrate)
Assay type: biochemical
Conditions: for % Response: preliminary screen, FS-3 hydrolysis at one hour, normalized to vehicle control, mean±S.D., same values given at 10 μM in Table 5; for IC50: Calculated IC50 data for the 30 active compounds, FS-3 substrate
Experimental: ATX inhibition was assayed using the substrate FS-3 (Echelon Biosciences, Inc., Salt Lake City, Utah, USA). The FS-3 assay used ˜10 times concentrated conditioned serum-free medium (CCM) from MDA-MB-435 cells as the source of ATX, while CCM comprised one-third of the total volume. The final volume for FS-3 was comprised of the substrate at varying concentrations and 30 μM charcoal-stripped fatty acid free BSA (Sigma Aldrich) in assay buffer (1 mM each CaCl2 and MgCl2, 5 mM KCl, 140 mM NaCl, 50 mM Tris pH 8.0).
All assays were performed in 96-well plates with data read at 1 minute intervals by a Synergy2 system (BioTek, Winooski, Vt.). The fluorescence produced upon the hydrolysis of FS-3 was monitored using an excitation wavelength of 485 nm and an emission wavelength of 528 nm at 37° C. (Ferguson et al., 2006). […] All readings were normalized to vehicle control after subtraction of fluorescence in the absence of CCM. Data are shown as the mean±S.D. of at least three wells.

Row | % Response | IC50 | SMILES
1 | 94 ± 6.5% | – | Cc1ccc(C(=O)Nc2ccc(S(=O)(=O)O)c3cc(S(=O)(=O)O)cc(S(=O)(=O)O)c23)cc1NC(=O)c1cccc(NC(=O)Nc2cccc(C(=O)Nc3cc(C(=O)Nc4ccc(S(=O)(=O)O)c5cc(S(=O)(=O)O)cc(S(=O)(=O)O)c45)ccc3C)c2)c1.Cc1ccc(C)c2c1c(NCCCCCCNc1cc(C)[n+](C)c3c(C)ccc(C)c13)cc(C)[n+]2C [compound 32275]
2 | 51 ± 6.5% | – | CC(=O)Nc1ccc(C=Cc2ccc(NC(=O)Nc3ccc(C=Cc4ccc(NC(C)=O)cc4S(=O)(=O)O)c(S(=O)(=O)O)c3)cc2S(=O)(=O)O)c(S(=O)(=O)O)c1 [compound 34928]
3 | 73 ± 9.0% and 83 ± 5.8% | – | Cc1ccc(C(=O)Nc2ccc(S(=O)(=O)O)c3cc(S(=O)(=O)O)cc(S(=O)(=O)O)c23)cc1NC(=O)c1cccc(NC(=O)Nc2cccc(C(=O)Nc3cc(C(=O)Nc4ccc(S(=O)(=O)O)c5cc(S(=O)(=O)O)cc(S(=O)(=O)O)c45)ccc3C)c2)c1 [compound 34936]
4 | 87 ± 3.1% | – | CC1=NN(c2ccc(/C=C/c3ccc(NC(=O)Nc4ccc(/C=C/c5ccc(N6N=C(C)C(N=Nc7ccccc7C(=O)O)C6=O)cc5S(=O)(=O)O)c(S(=O)(=O)O)c4)cc3S(=O)(=O)O)c(S(=O)(=O)O)c2)C(=O)C1N=Nc1ccccc1C(=O)O.[Na+] (centres unmarked) [compound 34937]
5 | 98 ± 3.7% | – | O=S(=O)(c1ccc(NC(C(O)C(O)C(O)C(O)CO)S(=O)(=O)O)cc1)c1ccc(NC(C(O)C(O)C(O)C(O)CO)S(=O)(=O)O)cc1 (centres unmarked) [compound 36701]
6 | 92 ± 9.1% | – | O=S(=O)(O)c1cc(O)c2ccc(Nc3ccc4c(O)cc(S(=O)(=O)O)cc4c3)cc2c1 [compound 37203]
7 | 106 ± 60.5% | – | O=C(Nc1ccc2cc(S(=O)(=O)O)cc(O)c2c1)Nc1ccc2cc(S(=O)(=O)O)cc(O)c2c1 [compound 37204]
8 | 79 ± 3.7% | – | O=C(Nc1ccc(C(=O)Nc2ccc3c(O)cc(S(=O)(=O)O)cc3c2)cc1)c1ccccc1.[Na+] [compound 37215]
9 | 93 ± 4.6% | – | Nc1ccc(S(=O)(=O)c2ccc(NCNC(CSSCC(NCNc3ccc(S(=O)(=O)c4ccc(N)cc4)cc3)C(=O)O)C(=O)O)cc2)cc1 (centres unmarked) [compound 39858]
10 | 32 ± 9.1% | 13.9 µM | CN(C)C1C(=O)C(C(=O)NCNc2cccc(C(=O)O)c2C(=O)O)=C(O)C2(O)C(=O)C3=C(O)c4c(O)cccc4[C@](C)(O)[C@@H]3C[C@H]12 (some centres unmarked) [compound 43891]
11 | 61 ± 4.3% | – | CCOc1cc(-c2ccc(N=Nc3c(S(=O)(=O)O)cc4ccc(N)cc4c3O)cc2)ccc1N=Nc1c(S(=O)(=O)O)cc2ccc(N)cc2c1O.[Na+] [compound 44654]
12 | 89 ± 3.2% | – | O=C(Nc1ccc2c(O)cc(S(=O)(=O)O)cc2c1)Nc1ccc2c(O)cc(S(=O)(=O)O)cc2c1 [compound 45174]
13 | 64 ± 3.0% | – | O=C(Nc1ccc2c(O)cc(S(=O)(=O)[O-])cc2c1)Nc1ccc2c(O)c(N=Nc3ccc4cc(S(=O)(=O)[O-])ccc4c3)c(S(=O)(=O)[O-])cc2c1.[Na+].[Na+].[Na+] [compound 45616]
14 | 28 ± 3.7% | 8.85 µM | O=C(Nc1ccc2cc(S(=O)(=O)O)ccc2c1)c1ccc(N=Nc2c(S(=O)(=O)O)cc3cc(S(=O)(=O)O)cc(NC(=O)c4ccccc4)c3c2O)cc1.[Na+] [compound 45620]
15 | 16 ± 3.1% | 11.6 µM | COc1ccccc1N=Nc1c(S(=O)(=O)O)cc2cc(NC(=O)Nc3ccc4c(O)c(N=Nc5c(N)ccc6cc(S(=O)(=O)O)ccc56)c(S(=O)(=O)O)cc4c3)ccc2c1O [compound 45622]
16 | 92 ± 3.9% | – | COc1ccc(/C=N/N=C(N)/C(N)=N/N=C/c2ccc(OC)c(S(=O)(=O)O)c2)cc1S(=O)(=O)O.[Na+] [compound 46954]
17 | 90 ± 3.2% | – | NC(=N\N=C/c1ccc(O)c(S(=O)(=O)O)c1)/C(N)=N\N=C/c1ccc(O)c(S(=O)(=O)O)c1.[Na+] [compound 47470]
18 | 95 ± 3.0% | – | NC(=N\N=C/c1ccccc1S(=O)(=O)O)/C(N)=N\N=C/c1ccccc1S(=O)(=O)O.[Na+] [compound 47471]
19 | 116 ± 4.2% | – | Nc1c(N=Nc2ccc(S(=O)(=O)O)cc2)cc(S(=O)(=O)O)c2ccc(N=Nc3ccc([N+](=O)[O-])cc3)c(O)c12.[Na+] [compound 47725]
20 | 73 ± 3.0% | – | Cc1cc(C)c(N=Nc2cc(C)c(N=Nc3c(S(=O)(=O)[O-])cc4cc(Nc5ccccc5)ccc4c3O)cc2C)c(S(=O)(=O)[O-])c1.[Na+].[Na+] [compound 47747]
21 | 103 ± 58.1% | – | O=C(Nc1ccc2c(O)c(N=Nc3ccccc3)c(S(=O)(=O)[O-])cc2c1)Nc1ccc2c(O)c(N=Nc3ccccc3)c(S(=O)(=O)[O-])cc2c1.[Na+].[Na+] [compound 47749]

Row | % Response | IC50 | SMILES
22 | 68 ± 5.8% | – | Nc1cccc(N=Nc2c(S(=O)(=O)[O-])cc3cc(NC(=O)Nc4ccc5c(O)c(N=Nc6cccc(N)c6)c(S(=O)(=O)[O-])cc5c4)ccc3c2O)c1.[Na+].[Na+] [compound 47750]
23 | 52 ± 5.4% | – | Nc1c(N=Nc2ccc([N+](=O)[O-])cc2)c(S(=O)(=O)O)cc2cc(S(=O)(=O)O)c(N=Nc3ccc(-c4ccc(N=Nc5ccc(O)cc5)cc4)cc3)c(O)c12.[Na+] [compound 47752]
24 | 47 ± 3.7% | 37.6 µM | COc1cc(N=Nc2cc(S(=O)(=O)[O-])cc3cc(S(=O)(=O)[O-])cc(O)c23)c(C)cc1N=Nc1c(S(=O)(=O)[O-])cc2cc(Nc3ccccc3)ccc2c1O.[Na+].[Na+].[Na+] [compound 47755]
25 | 83 ± 5.5% | – | CC(=O)Nc1ccc(N=Nc2c(S(=O)(=O)O)cc3cc(NC(=O)Nc4ccc5c(O)c(N=Nc6ccccc6)c(S(=O)(=O)O)cc5c4)ccc3c2O)cc1.[Na+] [compound 47762]
26 | 41 ± 4.3% | 18.2 µM | COc1ccccc1N=Nc1c(S(=O)(=O)[O-])cc2cc(NC(=O)Nc3ccc4c(O)c(N=Nc5ccc(S(=O)(=O)[O-])cc5C)c(S(=O)(=O)[O-])cc4c3)ccc2c1O.[Na+].[Na+].[Na+] [compound 47764]
27 | 61 ± 3.7% | – | Nc1ccc(C(=O)Nc2cccc(C(=O)Nc3ccc4c(O)c(N=Nc5ccc(N=Nc6ccc(S(=O)(=O)[O-])cc6)cc5)c(S(=O)(=O)[O-])cc4c3)c2)cc1.[Na+].[Na+] [compound 47767]
28 | 98 ± 5.5% | – | COc1ccc(/C=N\NC(=O)N/N=C/c2ccc(OC)c(S(=O)(=O)O)c2)cc1S(=O)(=O)O.[Na+] [compound 48775]
29 | 94 ± 3.5% | – | O=C(N/N=C\c1ccc(O)c(S(=O)(=O)O)c1)N/N=C/c1ccc(O)c(S(=O)(=O)O)c1.[Na+] [compound 48776]
30 | 67 ± 4.0% | – | Nc1cccc(N=Nc2c(S(=O)(=O)[O-])cc3cc(Nc4ccc5c(O)c(N=Nc6cccc(N)c6)c(S(=O)(=O)[O-])cc5c4)ccc3c2O)c1.[Na+].[Na+] [compound 51533]
31 | 95 ± 3.9% | – | O=C(N/N=C/c1ccc(O)c(S(=O)(=O)O)c1)C(=O)N/N=C/c1ccc(O)c(S(=O)(=O)O)c1.[Na+] [compound 55736]
32 | 100 ± 4.2% | – | COc1ccc(/C=N/NC(=O)C(=O)N/N=C/c2ccc(OC)c(S(=O)(=O)O)c2)cc1S(=O)(=O)O [compound 56207]
33 | 89 ± 3.9% | – | Nc1cccc(N=Nc2c(S(=O)(=O)[O-])cc3cc(Nc4ccc5c(O)c(N=Nc6cccc(N)c6)c(S(=O)(=O)[O-])cc5c4)ccc3c2O)c1.[Na+].[Na+] [compound 58055]
34 | 29 ± 3.6% | 11.6 µM | Cc1ccccc1N=Nc1c(S(=O)(=O)[O-])cc2cc(NC(=O)Nc3ccc4c(O)c(N=Nc5ccc6cc(S(=O)(=O)[O-])ccc6c5)c(S(=O)(=O)[O-])cc4c3)ccc2c1O.[Na+].[Na+].[Na+] [compound 58057]
35 | 30 ± 4.9% | 13.8 µM | COc1cc(N=Nc2c(S(=O)(=O)O)cc3cc(NC(=O)Nc4ccc5c(O)c(N=Nc6ccc7cc(S(=O)(=O)O)ccc7c6)c(S(=O)(=O)O)cc5c4)ccc3c2O)c(C)cc1N [compound 58058]
36 | 71 ± 4.4% | – | Cc1cc(N=Nc2ccc(S(=O)(=O)[O-])cc2)c(N)c(N=Nc2ccc(S(=O)(=O)[O-])cc2)c1N.[Na+].[Na+] [compound 65540]
37 | 76 ± 5.1% | – | Nc1c(N=Nc2ccc([N+](=O)[O-])cc2)c(S(=O)(=O)O)cc2cc(S(=O)(=O)O)c(N=Nc3ccc([N+](=O)[O-])cc3)c(O)c12.[Na+] [compound 65544]
38 | 56 ± 4.9% | – | Nc1c(N=Nc2ccc([N+](=O)[O-])cc2)c(S(=O)(=O)O)cc2cc(S(=O)(=O)O)c(N=Nc3ccc(-c4ccc(O)cc4)cc3)c(O)c12.[Na+] [compound 65560]
39 | 74 ± 5.5% | – | Cc1cc(N)ccc1N=Nc1ccc(Sc2ccc(N=Nc3c(S(=O)(=O)O)cc4cc(S(=O)(=O)O)c(N=Nc5ccc([N+](=O)[O-])cc5)c(N)c4c3O)cc2)cc1.[Na+] [compound 65571]
40 | 39 ± 3.8% | 19.1 µM | O=C(Nc1ccc2c(O)c(N=Nc3ccccc3)c(S(=O)(=O)O)cc2c1)Nc1ccc2c(O)c(N=Nc3ccc4cc(S(=O)(=O)O)ccc4c3)c(S(=O)(=O)O)cc2c1.[H-].[Na+] [compound 65573]
41 | 20 ± 3.7% | 12 µM | Cc1cccc(N=Nc2c(S(=O)(=O)O)cc3cc(NC(=O)Nc4ccc5c(O)c(N=Nc6ccc7cc(S(=O)(=O)O)ccc7c6)c(S(=O)(=O)O)cc5c4)ccc3c2O)c1.[Na+] [compound 65574]
